Measured values reported in US9796711B2, “Substituted pyrazolo[3,4-b]pyridin-6-carboxylic acids and method of use” (AbbVie S.àr.l., priority 2015, dated 2017).
pEC50: −log10 of the molar value.

Key:
[1] = biological target: T1, ΔF508-CFTR (Homo sapiens, UniProt P13569, DEL508-508); experiment: CFTR cell surface levels using HRP-tagged ΔF508-CFTR expressing CFBE cells, intrinsic corrector capacity; assay type: cell-based
T1 construct: host or cells: CFBE41o-, doxycycline-inducible
Outline: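 Here the cells express ΔF508-CFTR with horseradish peroxidase inserted in extracellular loop 4, so only rescued channel at the surface gives luminescent signal. Compounds act on their own, 20 h at the reduced temperature of 33 °C; values are percent activity relative to DMSO and a 3 μM corrector.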

[2] = biological target: T1, ΔF508-CFTR; experiment: CFTR cell surface levels using HRP-tagged ΔF508-CFTR expressing CFBE cells, in the presence of a co-corrector; assay type: cell-based
Outline: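 Cells were seeded with 0.5 μg/mL doxycycline and held 68 h at 37 °C. Test compounds plus 3 μM co-corrector (final 0.1% DMSO) were then added for 20 h at 33 °C. Washed cells received HRP substrate, and luminescence was normalized between DMSO and 3 μM co-corrector controls.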

[3] = HRP-tagged ΔF508-CFTR expressing CFBE cells, intrinsic corrector capacity (no co-corrector), 33° C., 20 hours
[4] = HRP-tagged ΔF508-CFTR expressing CFBE cells, intrinsic corrector capacity (no co-corrector), 33° C., 20 hours, read-out: EC50
[5] = HRP-tagged ΔF508-CFTR expressing CFBE cells, in the presence of 3 μM co-corrector
[6] = HRP-tagged ΔF508-CFTR expressing CFBE cells, in the presence of 3 μM co-corrector, read-out: EC50

T1 sequence (P13569 with tags, fused parts or gaps DEL508-508): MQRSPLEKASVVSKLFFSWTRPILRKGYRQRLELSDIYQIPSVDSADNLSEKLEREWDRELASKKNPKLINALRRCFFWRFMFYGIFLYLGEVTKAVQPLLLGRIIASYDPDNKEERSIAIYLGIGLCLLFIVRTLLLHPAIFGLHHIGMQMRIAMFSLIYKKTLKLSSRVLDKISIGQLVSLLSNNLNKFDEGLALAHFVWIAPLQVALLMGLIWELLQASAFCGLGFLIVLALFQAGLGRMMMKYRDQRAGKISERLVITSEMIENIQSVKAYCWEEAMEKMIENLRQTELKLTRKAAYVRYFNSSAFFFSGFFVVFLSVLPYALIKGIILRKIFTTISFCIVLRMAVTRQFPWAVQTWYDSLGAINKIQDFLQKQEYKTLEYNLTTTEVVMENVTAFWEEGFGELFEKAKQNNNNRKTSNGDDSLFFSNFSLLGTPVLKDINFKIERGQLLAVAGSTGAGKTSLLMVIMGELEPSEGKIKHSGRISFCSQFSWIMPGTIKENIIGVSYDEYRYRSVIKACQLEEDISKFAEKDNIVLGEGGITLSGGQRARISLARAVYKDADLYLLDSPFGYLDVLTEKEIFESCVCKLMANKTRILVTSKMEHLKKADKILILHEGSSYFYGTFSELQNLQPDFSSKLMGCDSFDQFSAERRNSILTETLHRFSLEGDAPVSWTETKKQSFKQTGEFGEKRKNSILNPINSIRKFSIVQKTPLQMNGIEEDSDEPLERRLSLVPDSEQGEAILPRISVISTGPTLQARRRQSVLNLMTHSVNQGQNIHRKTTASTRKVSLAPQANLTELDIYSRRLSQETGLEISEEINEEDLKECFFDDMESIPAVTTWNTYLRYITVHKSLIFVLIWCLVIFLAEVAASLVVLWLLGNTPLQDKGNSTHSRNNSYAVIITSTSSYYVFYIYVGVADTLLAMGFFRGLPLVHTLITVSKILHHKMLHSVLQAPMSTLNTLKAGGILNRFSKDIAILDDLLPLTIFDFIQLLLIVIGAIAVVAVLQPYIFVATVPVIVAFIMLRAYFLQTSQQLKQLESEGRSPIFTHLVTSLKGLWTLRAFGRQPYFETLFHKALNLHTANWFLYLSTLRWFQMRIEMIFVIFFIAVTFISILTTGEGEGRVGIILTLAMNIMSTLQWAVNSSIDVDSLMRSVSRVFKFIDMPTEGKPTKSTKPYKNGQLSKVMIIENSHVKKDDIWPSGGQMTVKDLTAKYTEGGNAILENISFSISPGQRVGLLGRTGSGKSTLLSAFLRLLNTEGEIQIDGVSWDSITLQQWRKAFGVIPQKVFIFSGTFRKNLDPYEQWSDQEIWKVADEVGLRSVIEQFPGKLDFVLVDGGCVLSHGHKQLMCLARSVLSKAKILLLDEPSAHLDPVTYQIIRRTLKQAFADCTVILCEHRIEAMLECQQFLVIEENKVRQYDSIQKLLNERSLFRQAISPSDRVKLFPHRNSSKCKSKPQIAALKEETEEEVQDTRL

SMILES | % Activation [1, 3] [%] | pEC50 [1, 4] | % Activation [2, 5] [%] | pEC50 [2, 6] | pEC50 [1] | pEC50 [2]
O=C(O)c1cc(O[C@@H]2CCOC2)c2c(C3CCC3)nn(-c3ccccc3)c2n1 [compound 582, 3-cyclobutyl-4-{[(3R)-oxolan-3-yl]oxy}-1-phenyl-1H-pyrazolo[3,4-b]pyridine-6-carboxylic acid] | 92.03 | 6.04 | 307.5 | 6.21 |  | 
O=C(O)c1cc(O[C@H]2CCOC2)c2c(C3CCC3)nn(-c3ccccc3)c2n1 [compound 583] | 134.7 | 5.99 | 287.75 | 6.34 |  | 
COCC1CCN(c2cc(C(=O)O)nc3c2c(C(C)C)nn3-c2ccnc(N3CCOCC3)n2)CC1 [compound 589] | 232.15 | 6.34 | 451.75 | 6.52 |  | 
O=C(O)c1cc(NCC2CCOCC2)c2c(C3CCC3)nn(-c3ccccc3)c2n1 [compound 590, 3-cyclobutyl-4-{[(oxan-4-yl)methyl]amino}-1-phenyl-1H-pyrazolo[3,4-b]pyridine-6-carboxylic acid] | 141.3 |  | 310.45 |  | 5.58 | 5.69
N#CC1CCN(c2ccc(-c3cc(C(=O)O)nc4c3c(OC3CCOC3)nn4-c3ccccc3)cn2)CC1 (centres unmarked) [compound 591, 4-[6-(4-cyanopiperidin-1-yl)pyridin-3-yl]-3-[(oxolan-3-yl)oxy]-1-phenyl-1H-pyrazolo[3,4-b]pyridine-6-carboxylic acid] | 106.3 | 6.03 | 286.4 | 6.35 |  | 
N#CC1CCN(c2ccc(-c3cc(C(=O)O)nc4c3c(OC3COC3)nn4-c3ccccc3)cn2)CC1 [compound 592, 4-[6-(4-cyanopiperidin-1-yl)pyridin-3-yl]-3-[(oxetan-3-yl)oxy]-1-phenyl-1H-pyrazolo[3,4-b]pyridine-6-carboxylic acid] | 116.6 | 5.94 | 279 | 6.23 |  | 
O=C(O)c1cc(N2CCC(F)(F)CC2)c2c(C3CCC3)nn(-c3ccccc3)c2n1 [compound 594, 3-cyclobutyl-4-(4,4-difluoropiperidin-1-yl)-1-phenyl-1H-pyrazolo[3,4-b]pyridine-6-carboxylic acid] | 75.66 | 6.10 | 269.8 | 6.21 |  | 
COCC1(F)CCCN(c2cc(C(=O)O)nc3c2c(C2CCC2)nn3-c2ccccc2)C1 (centres unmarked) [compound 595, 3-cyclobutyl-4-[3-fluoro-3-(methoxymethyl)piperidin-1-yl]-1-phenyl-1H-pyrazolo[3,4-b]pyridine-6-carboxylic acid] | 162.8 | 6.46 | 383.8 | 6.68 |  | 
O=C(O)c1cc(N2CCOC(C(F)(F)F)C2)c2c(C3CCC3)nn(-c3ccccc3)c2n1 (centres unmarked) [compound 596, 3-cyclobutyl-1-phenyl-4-[2-(trifluoromethyl)morpholin-4-yl]-1H-pyrazolo[3,4-b]pyridine-6-carboxylic acid] | 99.54 | 6.13 | 299.4 | 6.28 |  | 
O=C(O)c1cc(OC2CN(C3CCCCC3)C2)c2c(C3CCC3)nn(-c3ccccc3)c2n1 [compound 599, 3-cyclobutyl-4-[(1-cyclohexylazetidin-3-yl)oxy]-1-phenyl-1H-pyrazolo[3,4-b]pyridine-6-carboxylic acid] | 81.59 | 6.45 | 248.4 | 6.42 |  | 
CC(C)c1nn(-c2cccc(N(C)C)c2)c2nc(C(=O)O)cc(OCC3CCOCC3)c12 [compound 602, 1-[3-(dimethylamino)phenyl]-4-[(oxan-4-yl)methoxy]-3-(propan-2-yl)-1H-pyrazolo[3,4-b]pyridine-6-carboxylic acid] | 159.3 | 6.59 | 393.4 | 6.87 |  | 
CC(C)c1nn(C2CCCCC2)c2nc(C(=O)O)cc(OCC3CCOCC3)c12 [compound 603, 1-cyclohexyl-4-[(oxan-4-yl)methoxy]-3-(propan-2-yl)-1H-pyrazolo[3,4-b]pyridine-6-carboxylic acid] | 92.66 | 5.75 | 273.3 | 6.06 |  | 
CC(C)c1nn(-c2ccc(F)cc2)c2nc(C(=O)O)cc(OCCC3CCOCC3)c12 [compound 604, 1-(4-fluorophenyl)-4-[2-(oxan-4-yl)ethoxy]-3-(propan-2-yl)-1H-pyrazolo[3,4-b]pyridine-6-carboxylic acid] | 142.9 | 6.13 | 292.2 | 6.59 |  | 
COC(C)(C)C1CCN(c2cc(C(=O)O)nc3c2c(C2CCC2)nn3-c2ccccc2)CC1 [compound 605, 3-cyclobutyl-4-[4-(2-methoxypropan-2-yl)piperidin-1-yl]-1-phenyl-1H-pyrazolo[3,4-b]pyridine-6-carboxylic acid] | 292.8 | 7.09 | 531.3 | 7.36 |  | 
CN(C)CCCCOc1cc(C(=O)O)nc2c1c(C1CCC1)nn2-c1ccccc1 [compound 611, 3-cyclobutyl-4-[4-(dimethylamino)butoxy]-1-phenyl-1H-pyrazolo[3,4-b]pyridine-6-carboxylic acid] | 104.6 | 5.48 | 278.1 | 5.53 |  | 
CC(=O)N1CCC(Oc2cc(C(=O)O)nc3c2c(C2CCC2)nn3-c2ccccc2)CC1 [compound 612, 4-[(1-acetylpiperidin-4-yl)oxy]-3-cyclobutyl-1-phenyl-1H-pyrazolo[3,4-b]pyridine-6-carboxylic acid] | 109.5 | 5.48 | 266.9 | 5.93 |  | 
O=C(O)c1cc(OCC(F)(F)F)c2c(C3CCC3)nn(-c3ccccc3)c2n1 [compound 613, 3-cyclobutyl-1-phenyl-4-(2,2,2-trifluoroethoxy)-1H-pyrazolo[3,4-b]pyridine-6-carboxylic acid] | 99.78 | 5.80 | 292 | 6.13 |  | 
CN(C)CCOCCOc1cc(C(=O)O)nc2c1c(C1CCC1)nn2-c1ccccc1 [compound 614, 3-cyclobutyl-4-{2-[2-(dimethylamino)ethoxy]ethoxy}-1-phenyl-1H-pyrazolo[3,4-b]pyridine-6-carboxylic acid] | 32.02 | 5.48 | 176.9 | 5.48 |  | 
C[C@@H](CN(C)C)Oc1cc(C(=O)O)nc2c1c(C1CCC1)nn2-c1ccccc1 [compound 615, 3-cyclobutyl-4-{[(2S)-1-(dimethylamino)propan-2-yl]oxy}-1-phenyl-1H-pyrazolo[3,4-b]pyridine-6-carboxylic acid] | 44.6 | 5.48 | 216.65 | 5.63 |  | 
O=C(O)c1cc(OCC2CCC(F)(F)CC2)c2c(C3CCC3)nn(-c3ccccc3)c2n1 [compound 616, 3-cyclobutyl-4-[(4,4-difluorocyclohexyl)methoxy]-1-phenyl-1H-pyrazolo[3,4-b]pyridine-6-carboxylic acid] | 144.2 | 6.93 | 389.95 | 7.08 |  | 
